Laboratory results reported in patent US11708376B2 (VIRGINIA TECH INTELLECTUAL PROPERTIES, INC., priority 2018, dated 2023).

system: Male C57BL/6J mice on western diet; experiment: Diet induced obesity mouse study; assay type: in vivo; settings: WD containing 2-21, ~40 mg/kg/day, after 28 days of WD
Text: FIG. 1. Diet induced obesity reversal data, for mice given a regular chow diet, a Western diet, or a Western diet plus compound 2-21. FIG. 1A, Body mass versus time; FIG. 1B, fat mass (measured by EchoMRI) versus time; FIG. 1C, food intake (last 14 days) versus time.
Male C57BL/6J mice aged 3 months were assigned to either normal chow diet (Chow, n=5) or western diet (WD, n=10) for 28 days. After 28 days half of the WD group were switched to WD containing compound 2-21 at a concentration resulting in consumption of ˜40 mg/kg/day 1-112 (2-21 40 mpk). Body mass (A), fat mass (measured by EchoMRI (B)), and food intake (C. for the final 14 days) were recorded as indicated.

SMILES | Body mass | Fat mass (measured by EchoMRI)
COc1nc2[nH]c(C(F)(F)F)nc2nc1Nc1ccc(OC(F)(F)F)cc1F [Compound 2-21, 6-methoxy-N-(2-fluoro-4-(trifluoromethoxy)phenyl)-2-(trifluoromethyl)-1H-imidazo[4,5-b]pyrazin-5-amine] | lost body weight | lost body weight and fat mass

same assay, conditions: WD containing 2-21, ~40 mg/kg/day; final 14 days

SMILES | Food intake
COc1nc2[nH]c(C(F)(F)F)nc2nc1Nc1ccc(OC(F)(F)F)cc1F [Compound 2-21, 6-methoxy-N-(2-fluoro-4-(trifluoromethoxy)phenyl)-2-(trifluoromethyl)-1H-imidazo[4,5-b]pyrazin-5-amine] | without a significant change in food intake

system: whole cells (NMuLi, C2Cl2, and L6 cells, isolated cardiomyocytes, human primary fibroblasts); experiment: Oxygen consumption rate (OCR) in whole cells, Seahorse XF-24 Flux Analyzer; assay type: cell-based; settings: cell type for Table 1 not stated, read-out: OCR Activity (increase in OCR), binned EC50
Description: Biological activities of the compounds synthesized is determined by determining increase in oxygen consumption rate (OCR).
Oxygen consumption rate (OCR) in whole cells is measured in general accordance with the method of Kenwood B M et al. (Mol. Met. (2014) 3: 114-123).
OCR is measured using a Seahorse XF-24 Flux Analyzer (Seahorse Biosciences, North Billerica, Mass.). NMuLi, C2Cl2, and L6 cells are seeded in a Seahorse 24-well tissue culture plate at a density of 3.5×10^4 cells/well, isolated cardiomyocytes at a density of 4×10^4 cells/well, and human primary fibroblasts at a density of 1.1×10^4 cells/well. The cells are then allowed to adhere for 24 h. Prior to the assay, the media is changed to unbuffered DMEM containing pyruvate and glutamine (Gibco #12800-017, pH=7.4 at 37° C.) and the cells are equilibrated for 30 mins at 37° C. Compounds are injected during the assay and OCR is measured using 2 min measurement periods.
2-3 wells are used per condition and averaged over three plates (n=6-9). Statistical significance is determined by two-way ANOVA with Bonfenoni's posttest.
Activities are reported as binned EC50 values: A=5 μM or less; B=>5 to 20 μM; C=over 20 μM; NA=no effect.

SMILES | EC50
COc1nc2[nH]c(C(F)(F)F)nc2nc1Nc1ccc(OC(F)(F)F)cc1F [Compound 2-21, 6-methoxy-N-(2-fluoro-4-(trifluoromethoxy)phenyl)-2-(trifluoromethyl)-1H-imidazo[4,5-b]pyrazin-5-amine] | ≤ 5 µM
COc1nc2[nH]c(C(F)(F)F)nc2nc1Oc1ccc(C(F)(F)F)cc1 [Compound 2-40, 6-methoxy-2-(trifluoromethyl)-5-(4-(trifluoromethyl)phenoxy)-1H-imidazo[4,5-b]pyrazine] | ≤ 5 µM
COc1nc2[nH]c(C(F)(F)F)nc2nc1Nc1ccc(OC(F)(F)F)cc1I [Compound 2-41, N-(2-iodo-4-(trifluoromethoxy)phenyl)-6-methoxy-2-(trifluoromethyl)-1H-imidazo[4,5-b]pyrazin-5-amine] | 5 to 20 µM
COc1nc2[nH]c(C(F)(F)F)nc2nc1Nc1ccc(OC(F)(F)F)cc1Cl [Compound 2-42, N-(2-chloro-4-(trifluoromethoxy)phenyl)-6-methoxy-2-(trifluoromethyl)-1H-imidazo[4,5-b]pyrazin-5-amine] | 5 to 20 µM
COc1nc2[nH]c(C(F)(F)F)nc2nc1Nc1ccc(OC(F)(F)F)c(Cl)c1 [Compound 2-43, N-(3-chloro-4-(trifluoromethoxy)phenyl)-6-methoxy-2-(trifluoromethyl)-1H-imidazo[4,5-b]pyrazin-5-amine] | > 20 µM
COc1nc2[nH]c(C(F)(F)F)nc2nc1Nc1ccc(OC(F)(F)F)c(Br)c1 [Compound 2-44, N-(3-bromo-4-(trifluoromethoxy)phenyl)-6-methoxy-2-(trifluoromethyl)-1H-imidazo[4,5-b]pyrazin-5-amine] | > 20 µM
CC(C)Oc1nc2nc(C(F)(F)F)[nH]c2nc1Nc1ccc(C(F)(F)F)cc1 [Compound 2-45, 5-isopropoxy-2-(trifluoromethyl)-N-(4-(trifluoromethyl)phenyl)-1H-imidazo[4,5-b]pyrazin-6-amine] | > 20 µM
Fc1ccccc1Oc1nc2nc(C(F)(F)F)[nH]c2nc1Nc1ccc(C(F)(F)F)cc1 [Compound 2-46, 5-(2-fluorophenoxy)-2-(trifluoromethyl)-N-(4-(trifluoromethyl)phenyl)-1H-imidazo[4,5-b]pyrazin-6-amine] | 5 to 20 µM
FC(F)(F)c1ccc(Nc2nc3[nH]c(C(F)(F)F)nc3nc2Oc2ccc(C(F)(F)F)cc2)cc1 [Compound 2-47, 2-(trifluoromethyl)-5-(4-(trifluoromethyl)phenoxy)-N-(4-(trifluoromethyl)phenyl)-1H-imidazo[4,5-b]pyrazin-6-amine] | ≤ 5 µM
COc1nc2nc(C(F)(F)F)[nH]c2nc1N(C)c1ccc(C(F)(F)F)cc1 [Compound 2-49, 5-methoxy-N-methyl-2-(trifluoromethyl)-N-(4-(trifluoromethyl)phenyl)-1H-imidazo[4,5-b]pyrazin-6-amine] | ≤ 5 µM
Oc1nc2[nH]c(C(F)(F)F)nc2nc1Nc1cccc(C(F)(F)F)c1F [Compound 2-54, 5-((2-fluoro-3-(trifluoromethyl)phenyl)amino)-2-(trifluoromethyl)-1H-imidazo[4,5-b]pyrazin-6-ol] | > 20 µM
Oc1nc2[nH]c(C(F)(F)F)nc2nc1Nc1ccc(C(F)(F)F)cc1 [Compound 2-55, 5-((4-(trifluoromethyl)phenyl)amino)-2-(trifluoromethyl)-1H-imidazo[4,5-b]pyrazin-6-ol] | > 20 µM
COc1nc2[nH]c(-c3ccccc3)nc2nc1Nc1ccc(OC(F)(F)F)cc1 [Compound 2-60, 6-methoxy-2-phenyl-N-(4-(trifluoromethoxy)phenyl)-1H-imidazo[4,5-b]pyrazin-5-amine] | > 20 µM
COc1nc2nc(C(F)(F)F)[nH]c2cc1Nc1ccccc1F [Compound 2-61, N-(2-fluorophenyl)-5-methoxy-2-(trifluoromethyl)-1H-imidazo[4,5-b]pyridin-6-amine] | > 20 µM
COc1nc2nc(C(F)(F)F)[nH]c2cc1Nc1ccc(OC(F)(F)F)cc1 [Compound 2-62, 5-methoxy-N-(4-(trifluoromethoxy)phenyl)-2-(trifluoromethyl)-1H-imidazo[4,5-b]pyridin-6-amine] | 5 to 20 µM
COc1nc2nc(C(F)(F)F)[nH]c2cc1Nc1cccc(OC(F)(F)F)c1 [Compound 2-63, 5-methoxy-N-(3-(trifluoromethoxy)phenyl)-2-(trifluoromethyl)-1H-imidazo[4,5-b]pyridin-6-amine] | > 20 µM
COc1nc2nc(C(F)(F)F)[nH]c2cc1Nc1ccc(C(F)(F)F)cc1 [Compound 2-64, 5-methoxy-2-(trifluoromethyl)-N-(4-(trifluoromethyl)phenyl)-1H-imidazo[4,5-b]pyridin-6-amine] | 5 to 20 µM
COc1nc2nc(C(F)(F)F)[nH]c2cc1Nc1cccc(C(F)(F)F)c1 [Compound 2-65, 5-methoxy-2-(trifluoromethyl)-N-(3-(trifluoromethyl)phenyl)-1H-imidazo[4,5-b]pyridin-6-amine] | > 20 µM
COc1nc2nc(C(F)(F)F)[nH]c2cc1Nc1ccc(OC(F)(F)F)cc1F [Compound 2-66, N-(2-fluoro-4-(trifluoromethoxy)phenyl)-5-methoxy-2-(trifluoromethyl)-1H-imidazo[4,5-b]pyridin-6-amine] | ≤ 5 µM
COc1nc2[nH]c(C(F)(F)F)nc2cc1Nc1cccc(F)c1 [Compound 2-67, N-(3-fluorophenyl)-5-methoxy-2-(trifluoromethyl)-3H-imidazo[4,5-b]pyridin-6-amine] | 5 to 20 µM
COc1nc2[nH]c(C(F)(F)F)nc2cc1Nc1cccc(F)c1F [Compound 2-68, N-(2,3-Difluorophenyl)-5-methoxy-2-(trifluoromethyl)-3H-imidazo[4,5-b]pyridin-6-amine] | 5 to 20 µM
COc1ccc(Nc2cc3nc(C(F)(F)F)[nH]c3nc2OC)cc1 [Compound 2-69, 5-methoxy-N-(4-methoxyphenyl)-2-(trifluoromethyl)-3H-imidazo[4,5-b]pyridin-6-amine] | ≤ 5 µM
COc1nc2[nH]c(C(F)(F)F)nc2cc1Nc1cccc(C(C)(C)C)c1 [Compound 2-70, N-(3-(tert-butyl)phenyl)-5-methoxy-2-(trifluoromethyl)-3H-imidazo[4,5-b]pyridin-6-amine] | > 20 µM
COc1nc2[nH]c(C(F)(F)F)nc2cc1Nc1cc(C(F)(F)F)cc(C(F)(F)F)c1 [Compound 2-72, N-(3,5-bis(trifluoromethyl)phenyl)-5-methoxy-2-(trifluoromethyl)-3H-imidazo[4,5-b]pyridin-6-amine] | 5 to 20 µM
COc1nc2[nH]c(C(F)(F)F)nc2cc1Nc1ccc(C)cc1 [Compound 2-73, 5-methoxy-N-(p-tolyl)-2-(trifluoromethyl)-3H-imidazo[4,5-b]pyridin-6-amine] | > 20 µM
COc1nc2[nH]c(C(F)(F)F)nc2cc1Nc1ccc(OC(F)(F)F)cc1C [Compound 2-74, 5-methoxy-N-(2-methyl-4-(trifluoromethoxy)phenyl)-2-(trifluoromethyl)-3H-imidazo[4,5-b]pyridin-6-amine] | ≤ 5 µM
COc1nc2nc(C(F)(F)F)[nH]c2cc1Nc1ccc(-c2ccc(C(F)(F)F)nc2)cc1 [Compound 2-75, 5-methoxy-2-(trifluoromethyl)-N-(4-(6-(trifluoromethyl)pyridin-3-yl)phenyl)-1H-imidazo[4,5-b]pyridin-6-amine] | 5 to 20 µM
Oc1nc2nc(-c3cccc(F)c3)oc2nc1Nc1ccccc1F [Compound 4-3, 2-(3-fluorophenyl)-6-((2-fluorophenyl)amino)oxazolo[4,5-b]pyrazin-5-ol] | 5 to 20 µM
Oc1nc2nc(-c3cccc(F)c3)oc2nc1Nc1cc(C(F)(F)F)cc(C(F)(F)F)c1 [Compound 4-5, 6-((3,5-bis(trifluoromethyl)phenyl)amino)-2-(3-fluorophenyl)oxazolo[4,5-b]pyrazin-5-ol] | 5 to 20 µM
